Results taken from paper PMC4658230 (Toxicology, 2015).
Where two headings read alike, the source gives them in different places.

Key:
[1] = target: T1, mtCYP2E1 (Rattus norvegicus, UniProt P05182); conditions: mitochondria 2 mg/mL, methanol only
[2] = target: T1, mtCYP2E1; conditions: low concentration (10 μM); equal CYP2E1 levels in each compartment assumed
[3] = target: T2, erCYP2E1 (Rattus norvegicus, UniProt P05182); conditions: equal CYP2E1 levels in each compartment assumed
[4] = target: T2, erCYP2E1; test: Steady-state kinetics of substrate oxidation by rat liver microsomes; conditions: for Preferred Mechanism: rat liver microsomes, best of six steady-state mechanisms (DynaFit)
[5] = target: T2, erCYP2E1; conditions: microsomes 0.5 mg/mL, methanol only
[6] = target: T1, mtCYP2E1; conditions: for Preferred Mechanism: rat liver mitochondria, best of six steady-state mechanisms (DynaFit)
[7] = more recent studies of industrial workers; ref Bonanni et al. 2015; cited from earlier work
[8] = rat liver microsomes 0.5 mg/mL, 1 mM NADPH, 37°C, pH 7.4

T2 sequence (P05182 whole entry): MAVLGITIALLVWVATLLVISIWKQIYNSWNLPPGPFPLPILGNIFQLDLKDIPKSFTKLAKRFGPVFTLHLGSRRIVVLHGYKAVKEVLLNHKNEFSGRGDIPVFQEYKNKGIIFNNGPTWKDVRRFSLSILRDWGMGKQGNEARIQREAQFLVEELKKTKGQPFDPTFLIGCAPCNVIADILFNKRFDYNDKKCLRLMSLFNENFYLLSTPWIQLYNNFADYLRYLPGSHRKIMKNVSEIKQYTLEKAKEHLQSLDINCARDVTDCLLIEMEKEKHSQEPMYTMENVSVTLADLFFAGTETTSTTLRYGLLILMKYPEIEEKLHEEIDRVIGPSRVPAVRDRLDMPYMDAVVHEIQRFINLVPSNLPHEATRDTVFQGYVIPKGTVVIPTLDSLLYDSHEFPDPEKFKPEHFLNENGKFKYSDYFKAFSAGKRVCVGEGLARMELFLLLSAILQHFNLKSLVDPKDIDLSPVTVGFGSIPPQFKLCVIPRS
T1 sequence (P05182 2-493 limits assumed): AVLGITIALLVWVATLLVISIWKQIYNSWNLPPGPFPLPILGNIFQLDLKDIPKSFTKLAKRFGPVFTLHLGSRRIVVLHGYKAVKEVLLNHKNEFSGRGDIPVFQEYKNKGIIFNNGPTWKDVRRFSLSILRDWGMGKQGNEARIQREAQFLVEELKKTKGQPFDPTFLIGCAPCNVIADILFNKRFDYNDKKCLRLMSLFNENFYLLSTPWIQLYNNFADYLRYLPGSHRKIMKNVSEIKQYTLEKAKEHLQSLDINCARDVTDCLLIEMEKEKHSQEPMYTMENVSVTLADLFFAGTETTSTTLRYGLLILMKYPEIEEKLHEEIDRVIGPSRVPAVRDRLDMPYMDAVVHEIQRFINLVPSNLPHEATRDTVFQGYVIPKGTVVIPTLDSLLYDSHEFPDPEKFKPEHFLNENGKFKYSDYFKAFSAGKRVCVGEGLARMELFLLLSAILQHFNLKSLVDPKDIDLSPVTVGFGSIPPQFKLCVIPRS

In the case of `Nc1ccccc1` [aniline], the “control (uninhibited) rate of substrate oxidation by mtCYP2E1” value (“control (uninhibited) rate … by mtCYP2E1” for short) ([1]; 50 μM substrate) was 28 pmol/min/pmol CYP2E1, the “control (uninhibited) rate … by mtCYP2E1” value ([1]; 500 μM substrate) was 58 pmol/min/pmol CYP2E1 and the “percent of total metabolism through mtCYP2E1” value [2] was “about 6%”. The “percent of total metabolism through erCYP2E1” value ([3]; high concentration (500 μM)) was 95%, the “percent of total metabolism through erCYP2E1” value ([3]; low concentration (10 μM)) was “approximately 94%” and the “binding of second molecule weaker than first binding event” value ([4]; erCYP2E1, rat liver microsomes) was 25 fold. The “rate of turnover of ternary complex higher than binary enzyme-substrate complex” value ([4]; erCYP2E1, rat liver microsomes) was “two-fold”, the Kss [4, 8] was 54 (21 to 550) μM and the kcat [4, 8] was 500 (230 to 770) pmol/min/pmol CYP2E1. For the same compound, the kcat2 [4, 8] was 1000 (970 to 1300) pmol/min/pmol CYP2E1, the “Preferred Mechanism” value [4] was “Two-Site Model, ES and ESS active” and the “control (uninhibited) rate of substrate oxidation by erCYP2E1” value (“control (uninhibited) rate … by erCYP2E1” for short) ([5]; 50 μM substrate) was 260 pmol/min/mg. For the same compound, the “control (uninhibited) rate … by erCYP2E1” value ([5]; 500 μM substrate) was 1000 pmol/min/mg, the “Preferred Mechanism” value [6] was “One-Site Model (Michaelis-Menten)” and the “turnover rate of mtCYP2E1 lower than microsomal enzyme” value ([6]; versus erCYP2E1 after first substrate binding event) was 10 fold.
With `O=[N+]([O-])c1ccc(O)cc1` [4-nitrophenol, reference compound] the “control (uninhibited) rate … by mtCYP2E1” value ([1]; 50 μM substrate) was 26 pmol/min/pmol CYP2E1, the “control (uninhibited) rate … by mtCYP2E1” value ([1]; 500 μM substrate) was 60 pmol/min/pmol CYP2E1 and the Kss [4, 8] was 2000 (1600 to 2600) μM. For the same compound, the “Preferred Mechanism” value [4] was “Two-Site Model, ES active only”, the “control (uninhibited) rate … by erCYP2E1” value ([5]; 50 μM substrate) was 290 pmol/min/pmol CYP2E1 and the “control (uninhibited) rate … by erCYP2E1” value ([5]; 500 μM substrate) was 1080 pmol/min/pmol CYP2E1. For the same compound, the “turnover rate of mtCYP2E1 lower than erCYP2E1” value ([6]; mtCYP2E1 versus erCYP2E1) was “nine-fold” and the “Preferred Mechanism” value [6] was “One-Site Model (Michaelis-Menten)”.
In the case of `C=Cc1ccccc1` [styrene], the “control (uninhibited) rate … by mtCYP2E1” value ([1]; 50 μM substrate) is listed as 54 pmol/min/pmol CYP2E1, the “control (uninhibited) rate … by mtCYP2E1” value ([1]; 500 μM substrate) is listed as 76 pmol/min/pmol CYP2E1 and the styrene plasma levels [7] is listed as 0.06 µM. For the same compound, the kcat [4, 8] was 630 (580 to 690) pmol/min/pmol CYP2E1, the “control (uninhibited) rate … by erCYP2E1” value ([5]; 50 μM substrate) was 310 pmol/min/mg and the “control (uninhibited) rate … by erCYP2E1” value ([5]; 500 μM substrate) was 390 pmol/min/mg. For the same compound, the kcat ([6]; rat liver mitochondria 2 mg/mL, 1 mM NADPH, 37°C, pH 7.4) was 100 (96 to 110) pmol/min/pmol CYP2E1.
